Data from patent US4411890A, “Synthetic peptides having pituitary growth hormone releasing activity” (Beckman Instruments, Inc., priority 1981, dated 1983).
Where a SMILES comes first, the peptide text is derived from it.

Tests used:
pituitaries = assay: In vitro growth hormone release study (incubated rat pituitaries, GH by RIA); format: cell-based; conditions: GH released at I3, I4 (I5) minus P2, mean ± SEM
Procedure: Female rats of the CD-1 strain were housed in a constant temperature room at 24° C. with 14 hours light and 10 hours darkness. The rats were fed Purina brand rat chow ab libitum. All studies were started between 0800 and 1000 hours.
Pituitaries were removed from 20 day old female rats. In each polytetrafluoroethylene beaker (10 ml) was incubated two pituitaries at 36° C. in 1 ml of lactated Ringer's solution in a Dubnoff Shaker (90 cycles/min.). All medium in each beaker was removed each hour (e.g., P1, P2, I3, I4, I5) and then fresh medium was added back to each beaker. Each medium removed was assayed for GH, in duplicate, by a standard radioimmunoassay (RIA).
The growth hormone agonist of Example 1 was not added to the incubation mediums employed during the first hour of the incubation period (P1) or to the incubation mediums employed during the second hour of the incubation period (P2). The growth hormone agonist of Example 1 was dissolved in dimethylsulfoxide (DMSO; 10:1, agonist:DMSO), added to each incubation medium employed during the third hour of the incubation period (I3), to each medium employed during the fourth hour of the incubation period (I4), and, when performed, to each medium employed during the fifth hour of the incubation period (I5). The release of growth hormone was recorded as ΔGH and calculated by subtracting the amount of GH released at P2 from that released at I3, I4, and, when performed, I5. The agonist activity was determined from the release at I3, I4, and, when performed, I5. The mean of the ΔGH values obtained from the three beakers per dosage level measured at I3, I4, and, when performed, I5 are set forth in Table VI.

[1] = test system: Female rats of The CD-1 strain; assay: In vivo growth hormone release study (subcutaneous injection, serum GH by RIA); design: species or system rat; conditions: serum GH about 15 minutes after injection, 21 day old female rats, mean ± SEM
Procedure: Female rats of The CD-1 strain were housed in a constant temperature room at 24° C. with 14 hours light and 10 hours darkness. The rats were fed Purina brand rat chow ab libitum. All studies were started between 0800 and 1000 hours. Each female rat (21 days old; eight rats per dosage level shown in Table XXVI) was injected subcutaneously with a desired dosage of the peptide of Example 6. Approximately 15 minutes after injection, the rat was guillotined. A blood sample was collected from the guillotined rat. The blood sample was centrifuged and a serum sample was collected therefrom. Each serum sample was assayed for GH, in duplicate, by a standard radioimmunoassay (RIA).

[2] = dosage 1 ng/ml incubation medium
[3] = dosage 3 ng/ml incubation medium
[4] = dosage 10 ng/ml incubation medium
[5] = dosage 1.0 μg/ml serum (so in the source)
[6] = dosage 3.0 μg/ml serum (so in the source)
[7] = dosage 10.0 μg/ml serum (so in the source)
[8] = dosage 30 ng/ml incubation medium
[9] = dosage 100 ng/ml incubation medium
[10] = dosage 1,000 ng/ml incubation medium
[11] = dosage 10,000 ng/ml incubation medium
[12] = dosage 300 ng/ml incubation medium
[13] = dosage 3,000 ng/ml incubation medium
[14] = dosage 30,000 ng/ml incubation medium

Row | Molecule | ΔGH (pituitaries; [4]) | ΔGH (pituitaries; [8]) | ΔGH (pituitaries; [9]) | ΔGH (pituitaries; [10]) | other results
1 | C[C@H](NC(=O)[C@@H](Cc1c[nH]c2ccccc12)NC(=O)[C@@H](N)Cc1c[nH]cn1)C(=O)N[C@@H](Cc1c[nH]c2ccccc12)C(=O)N[C@H](Cc1ccccc1)C(=O)N[C@@H](CCCNC(=N)N)C(N)=O [H2 -His-D-Trp-Ala-Trp-D-Phe-Arg-NH2] (HELM PEPTIDE1{H.[dW].A.W.[dF].R.[am]}$$$$V2.0) | 2,064 ± 346 ng/ml incubation medium | – | – | – | ΔGH (pituitaries; [2]): 805 ± 152 ng/ml incubation medium; ΔGH (pituitaries; [3]): 997 ± 249 ng/ml incubation medium; ΔGH [1, 5]: 9.2 ± 3.4 ng/ml subcutaneous; ΔGH [1, 6]: 32.2 ± 5.5 ng/ml subcutaneous; ΔGH [1, 7]: 87.5 ± 31 ng/ml subcutaneous; ΔGH ([1]; dosage 30.0 μg/ml serum (so in the source)): 31.1 ± 3.4 ng/ml subcutaneous
2 | C[C@H](NC(=O)[C@@H](Cc1c[nH]c2ccccc12)NC(=O)[C@@H](N)Cc1c[nH]cn1)C(=O)N[C@@H](Cc1c[nH]c2ccccc12)C(=O)N[C@H](Cc1ccccc1)C(=O)N[C@@H](CCC(N)=O)C(N)=O [H2 -His-D-Trp-Ala-Trp-D-Phe-Gln-NH2] (HELM PEPTIDE1{H.[dW].A.W.[dF].Q.[am]}$$$$V2.0) | 275 ± 66 ng/ml incubation medium | – | – | – | ΔGH (pituitaries; [2]): 5 ± 136 ng/ml incubation medium; ΔGH (pituitaries; [3]): 140 ± 168 ng/ml incubation medium; ΔGH [1, 5]: 1.4 ± 0.9 ng/ml subcutaneous; ΔGH [1, 6]: 3.8 ± 2.1 ng/ml subcutaneous; ΔGH [1, 7]: 32.1 ± 11.4 ng/ml subcutaneous
3 | C[C@H](NC(=O)[C@@H](Cc1c[nH]c2ccccc12)NC(=O)[C@@H](N)Cc1c[nH]cn1)C(=O)N[C@@H](Cc1c[nH]c2ccccc12)C(=O)N[C@H](Cc1ccccc1)C(=O)N[C@@H](CCCN)C(N)=O [H2 -His-D-Trp-Ala-Trp-D-Phe-Orn-NH2] (HELM PEPTIDE1{H.[dW].A.W.[dF].[Orn].[am]}$$$$V2.0) | 356 ± 92 ng/ml incubation medium | – | – | – | ΔGH (pituitaries; [2]): -295 ± 93 ng/ml incubation medium
4 | NCCCC[C@H](NC(=O)[C@@H](Cc1ccccc1)NC(=O)[C@H](Cc1c[nH]c2ccccc12)NC(=O)[C@H](CO)NC(=O)[C@@H](Cc1c[nH]c2ccccc12)NC(=O)[C@@H](N)Cc1c[nH]cn1)C(N)=O [H2 -His-D-Trp-Ser-Trp-D-Phe-Lys-NH2] (HELM PEPTIDE1{H.[dW].S.W.[dF].K.[am]}$$$$V2.0) | 161 ± 157 ng/ml incubation medium | 705 ± 149 ng/ml incubation medium | – | – | –
5 | CC(C)[C@H](NC(=O)[C@@H](Cc1c[nH]c2ccccc12)NC(=O)[C@@H](N)Cc1c[nH]cn1)C(=O)N[C@@H](Cc1c[nH]c2ccccc12)C(=O)N[C@H](Cc1ccccc1)C(=O)N[C@@H](CCCCN)C(N)=O [H2 -His-D-Trp-Val-Trp-D-Phe-Lys-NH2] (HELM PEPTIDE1{H.[dW].V.W.[dF].K.[am]}$$$$V2.0) | – | -118 ± 65 ng/ml incubation medium | – | – | –
6 | C[C@H](NC(=O)[C@@H](Cc1c[nH]c2ccccc12)NC(=O)[C@@H](N)Cc1ccc(O)cc1)C(=O)N[C@@H](Cc1c[nH]c2ccccc12)C(=O)N[C@H](Cc1ccccc1)C(=O)N[C@@H](CC(N)=O)C(N)=O [H2 -Tyr-D-Trp-Ala-Trp-D-Phe-Asn-NH2] (HELM PEPTIDE1{Y.[dW].A.W.[dF].N.[am]}$$$$V2.0) | – | 244 ng/ml incubation medium | 528 ± 184 ng/ml incubation medium | 1,670 ± 126 ng/ml incubation medium | –
7 | C[C@H](NC(=O)[C@@H](Cc1c[nH]c2ccccc12)NC(=O)[C@@H](N)Cc1ccc(O)cc1)C(=O)N[C@@H](Cc1c[nH]c2ccccc12)C(=O)N[C@H](Cc1ccccc1)C(=O)N[C@@H](CCC(N)=O)C(N)=O [H2 -Tyr-D-Trp-Ala-Trp-D-Phe-Gln-NH2] (HELM PEPTIDE1{Y.[dW].A.W.[dF].Q.[am]}$$$$V2.0) | 240 ng/ml incubation medium | – | 2,000 ± 523 ng/ml incubation medium | 4,235 ± 785 ng/ml incubation medium | ΔGH (pituitaries; [11]): 4,141 ± 576 ng/ml incubation medium
8 | C[C@H](NC(=O)[C@@H](Cc1c[nH]c2ccccc12)NC(=O)[C@@H](N)Cc1ccc(O)cc1)C(=O)N[C@@H](Cc1c[nH]c2ccccc12)C(=O)N[C@H](Cc1ccccc1)C(=O)N[C@@H](CCC(N)=O)C(=O)O [H2 -Tyr-D-Trp-Ala-Trp-D-Phe-Gln-OH] (HELM PEPTIDE1{Y.[dW].A.W.[dF].Q}$$$$V2.0) | – | – | 753 ± 559 ng/ml incubation medium | 2,759 ± 515 ng/ml incubation medium | ΔGH (pituitaries; [11]): 3,994 ± 1,214 ng/ml incubation medium
9 | C[C@H](NC(=O)[C@@H](Cc1c[nH]c2ccccc12)NC(=O)[C@@H](N)Cc1ccc(O)cc1)C(=O)N[C@@H](Cc1c[nH]c2ccccc12)C(=O)N[C@H](Cc1ccccc1)C(=O)N[C@@H](CCC(=O)O)C(N)=O [H2 -Tyr-D-Trp-Ala-Trp-D-Phe-Glu-NH2] (HELM PEPTIDE1{Y.[dW].A.W.[dF].E.[am]}$$$$V2.0) | – | 224 ng/ml incubation medium | – | – | ΔGH (pituitaries; [12]): 472 ± 104 ng/ml incubation medium; ΔGH (pituitaries; [13]): 1,404 ± 179 ng/ml incubation medium; ΔGH (pituitaries; [14]): 1,909 ± 270 ng/ml incubation medium
10 | CSCC[C@H](NC(=O)[C@@H](Cc1ccccc1)NC(=O)[C@H](Cc1c[nH]c2ccccc12)NC(=O)[C@H](C)NC(=O)[C@@H](Cc1c[nH]c2ccccc12)NC(=O)[C@@H](N)Cc1ccc(O)cc1)C(N)=O [H2 -Tyr-D-Trp-Ala-Trp-D-Phe-Met-NH2] (HELM PEPTIDE1{Y.[dW].A.W.[dF].M.[am]}$$$$V2.0) | – | 456 ± 151 ng/ml incubation medium | – | 1,832 ± 441 ng/ml incubation medium | ΔGH (pituitaries; [12]): 1,260 ± 245 ng/ml incubation medium
11 | C[C@H](NC(=O)[C@@H](Cc1c[nH]c2ccccc12)NC(=O)[C@@H](N)Cc1ccc(O)cc1)C(=O)N[C@@H](Cc1c[nH]c2ccccc12)C(=O)N[C@H](Cc1ccccc1)C(=O)N[C@@H](Cc1ccccc1)C(N)=O [H2 -Tyr-D-Trp-Ala-Trp-D-Phe-Phe-NH2] (HELM PEPTIDE1{Y.[dW].A.W.[dF].F.[am]}$$$$V2.0) | – | 10 ± 57 ng/ml incubation medium | – | – | ΔGH (pituitaries; [12]): 330 ng/ml incubation medium; ΔGH (pituitaries; [13]): 710 ng/ml incubation medium; ΔGH (pituitaries; [14]): 1,484 ± 135 ng/ml incubation medium
12 | C[C@H](NC(=O)[C@@H](Cc1c[nH]c2ccccc12)NC(=O)[C@@H](N)Cc1ccc(O)cc1)C(=O)N[C@@H](Cc1c[nH]c2ccccc12)C(=O)N[C@H](Cc1ccccc1)C(=O)N[C@H](C(N)=O)[C@@H](C)O [H2 -Tyr-D-Trp-Ala-Trp-D-Phe-Thr-NH2] (HELM PEPTIDE1{Y.[dW].A.W.[dF].T.[am]}$$$$V2.0) | 94 ± 69 ng/ml incubation medium | – | 650 ± 320 ng/ml incubation medium | 2,167 ± 591 ng/ml incubation medium | ΔGH (pituitaries; [11]): 2,957 ± 834 ng/ml incubation medium
13 | NC(=O)CC[C@H](NC(=O)[C@@H](Cc1ccccc1)NC(=O)[C@H](Cc1c[nH]c2ccccc12)NC(=O)CNC(=O)[C@@H](Cc1c[nH]c2ccccc12)NC(=O)[C@@H](N)Cc1ccc(O)cc1)C(N)=O [H2 -Tyr-D-Trp-Gly-Trp-D-Phe-Gln-NH2] (HELM PEPTIDE1{Y.[dW].G.W.[dF].Q.[am]}$$$$V2.0) | – | 103 ± 248 ng/ml incubation medium | 167 ng/ml incubation medium | 1,092 ng/ml incubation medium | –
14 | H2 -Tyr-D-Trp-Ala-Trp-D-Phe-Lys-NH2 | – | 1,346 ± 328 ng/ml incubation medium | – | – | ΔGH (pituitaries; [12]): 2,160 ± 166 ng/ml incubation medium; ΔGH (pituitaries; [13]): 1,630 ± 135 ng/ml incubation medium; ΔGH (pituitaries; [14]): 1,318 ± 247 ng/ml incubation medium
